Measured values from US20240216401A1, “COMBINATION THERAPY BY USING AKR1C3-ACTIVATED COMPOUND WITH IMMUNE CHECKPOINT INHIBITOR” (OBI Pharma, Inc., priority 2021, published 2024).
Several values for one entry are separate records, joined by “and”; a condition that tells them apart may be missing. Identical values can stand only once.

System: CTL cells (CD45^+CD8^+ T cells) in tumor-infiltrating lymphocytes
Test: Example 2: flow cytometry, percentage of CTL cells in TILs
Assay type: in vivo, Mus musculus
Method: Mice were sacrificed by CO2 euthanasia at the end of the study duration, and the connective tissue around tumor was resected. The tumor samples were then weighed and cut equally into three sections if the tumor weight over 400 mg. The tumor tissue was prepared for the isolation of tumor-infiltrating lymphocytes (TILs). The rest of one section was fixed in 10% formaldehyde and embedded in paraffin; the other was stored at a temperature below −70° C.
The tumor samples were dissected into smaller fragments using scalpels and then digested with a cocktail of collagenase, DNase I, and Hyaluronidase (Collagenase #C5138, DNase I #D5025, Hyaluronidase #H6254, SigmaAldrich) for at least 2 hours.
Cells were stained with the fluorescently conjugated surface antibodies and incubated for 30 minutes at 4° C., and then resuspended in staining buffer for flow cytometric analysis. Flow cytometry was done using a Navios EX Flow Cytometer (Beckman Coulter). Data were analyzed using the Kaluza Analysis Software (Beckman Coulter).

## C[C@H](OP(=O)(N1CC1)N1CC1)c1ccc([N+](=O)[O-])c(Oc2cccc(C(=O)N(C)C)c2)c1 [OBI-3424, (S)-1-(3-(3-N,N-dimethylaminocarbonyl)phenoxyl-4-mtrophenyl)-1-ethyl-N,N′-bis(ethylene)phosphoramidate]
G2: 0.3 mg/kg, individual mice
  CD69^+ CTL cells (CD45^+ CD8^+CD69^+) Total %: 5.21% and 23.86% and 22.84% and 35.19% and 17.92% and 16.34%
  CTL cells (CD45^+CD8^+) CD45^+ Gated %: 43.92% and 72.25% and 73.64% and 66.97% and 60.34% and 46.12%
  CTL cells (CD45^+CD8^+) Cell count (×10^5): 15.97 ×10^5 and 54.79 ×10^5 and 171.72 ×10^5 and 9.75 ×10^5 and 66.26 ×10^5 and 12.67 ×10^5
  CTL cells (CD45^+CD8^+) Total %: 8.21% and 26.79% and 31.80% and 45.54% and 26.88% and 17.47%
  Granzyme B^+ CTL cells (CD45^+ CD8^+GrB+) CTL Gated %: 66.16% and 97.44% and 95.50% and 85.88% and 99.84% and 99.74%
  Granzyme B^+ CTL cells (CD45^+ CD8^+GrB+) Cell count (×10^5): 11.61 ×10^5 and 69.08 ×10^5 and 196.18 ×10^5 and 6.59 ×10^5 and 69.09 ×10^5 and 16.66 ×10^5
  Granzyme B^+ CTL cells (CD45^+ CD8^+GrB+) Total %: 5.97% and 33.78% and 36.33% and 30.78% and 28.03% and 22.98%
  IFN-γ^+ CTL cells (CD45^+ CD8^+ IFN-γ^+) CTL Gated %: 2.04% and 0.66% and 0.54% and 0.36% and 1.10% and 0.64%
  IFN-γ^+ CTL cells (CD45^+ CD8^+ IFN-γ^+) Cell count (×10^5): 0.35 ×10^5 and 0.47 ×10^5 and 1.08 ×10^5 and 0.03 ×10^5 and 0.76 ×10^5 and 0.11 ×10^5
  IFN-γ^+ CTL cells (CD45^+ CD8^+ IFN-γ^+) Total %: 0.18% and 0.23% and 0.20% and 0.13% and 0.31% and 0.15%
  PD-1^+ CTL cells (CD45^+CD8^+ PD-1^+) CTL Gated %: 95.86% and 68.60% and 72.47% and 49.67% and 96.18% and 73.00%
  PD-1^+ CTL cells (CD45^+CD8^+ PD-1^+) Cell count (×10^5): 15.31 ×10^5 and 37.59 ×10^5 and 124.42 ×10^5 and 4.84 ×10^5 and 63.74 ×10^5 and 9.24 ×10^5
  PD-1^+ CTL cells (CD45^+CD8^+ PD-1^+) Total %: 7.87% and 18.38% and 23.04% and 22.62% and 25.86% and 12.75%
G3: 1 mg/kg, group mean
  CD25^+ CTL cells (CD45^+ CD8^+CD25^+) Cell count (×10^5): 1.33 ×10^5
  CD25^+ CTL cells (CD45^+CD8^+ CD25^+) CTL Gated %: 5.25%
  CD25^+ CTL cells (CD45^+CD8^+ CD25^+) Total %: 1.71%
  CD69^+ CTL cells (CD45^+ CD8^+CD69^+) CTL Gated %: 71.92%
  CD69^+ CTL cells (CD45^+ CD8^+CD69^+) Cell count (×10^5): 18.65 ×10^5
  CD69^+ CTL cells (CD45^+ CD8^+CD69^+) Total %: 25.02%
  CTL cells (CD45^+CD8^+) CD45^+ Gated %: 55.81%
  CTL cells (CD45^+CD8^+) Cell count (×10^5): 25.42 ×10^5
  CTL cells (CD45^+CD8^+) Total %: 33.50%
  Granzyme B^+ CTL cells (CD45^+ CD8^+GrB+) CTL Gated %: 88.17%
  Granzyme B^+ CTL cells (CD45^+ CD8^+GrB+) Cell count (×10^5): 23.13 ×10^5
  Granzyme B^+ CTL cells (CD45^+ CD8^+GrB+) Total %: 30.40%
  IFN-γ^+ CTL cells (CD45^+ CD8^+ IFN-γ^+) CTL Gated %: 0.63%
  IFN-γ^+ CTL cells (CD45^+ CD8^+ IFN-γ^+) Cell count (×10^5): 0.15 ×10^5
  IFN-γ^+ CTL cells (CD45^+ CD8^+ IFN-γ^+) Total %: 0.21%
  PD-1^+ CTL cells (CD45^+CD8^+ PD-1^+) CTL Gated %: 75.93%
  PD-1^+ CTL cells (CD45^+CD8^+ PD-1^+) Cell count (×10^5): 19.17 ×10^5
  PD-1^+ CTL cells (CD45^+CD8^+ PD-1^+) Total %: 24.78%
G3: 1 mg/kg, individual mice
  CD25^+ CTL cells (CD45^+ CD8^+CD25^+) Cell count (×10^5): 0.43 ×10^5 and 1.29 ×10^5 and 0.89 ×10^5 and 1.55 ×10^5 and 1.91 ×10^5 and 1.90 ×10^5
  CD25^+ CTL cells (CD45^+CD8^+ CD25^+) CTL Gated %: 3.38% and 2.85% and 4.07% and 7.29% and 6.05% and 7.84%
  CD25^+ CTL cells (CD45^+CD8^+ CD25^+) Total %: 1.49% and 1.02% and 1.26% and 1.57% and 2.57% and 2.34%
  CD69^+ CTL cells (CD45^+ CD8^+CD69^+) CTL Gated %: 80.80% and 70.50% and 83.69% and 59.32% and 76.33% and 60.89%
  CD69^+ CTL cells (CD45^+ CD8^+CD69^+) Cell count (×10^5): 10.34 ×10^5 and 31.84 ×10^5 and 18.33 ×10^5 and 12.61 ×10^5 and 24.09 ×10^5 and 14.69 ×10^5
  CD69^+ CTL cells (CD45^+ CD8^+CD69^+) Total %: 35.67% and 25.23% and 25.96% and 12.76% and 32.38% and 18.14%
  CTL cells (CD45^+CD8^+) CD45^+ Gated %: 66.02% and 53.39% and 62.97% and 38.03% and 65.33% and 49.11%
  CTL cells (CD45^+CD8^+) Cell count (×10^5): 12.68 ×10^5 and 40.30 ×10^5 and 21.83 ×10^5 and 22.61 ×10^5 and 32.02 ×10^5 and 23.10 ×10^5
  CTL cells (CD45^+CD8^+) Total %: 31.93% and 30.92% and 22.88% and 43.04% and 28.52%
  Granzyme B^+ CTL cells (CD45^+ CD8^+GrB+) CTL Gated %: 90.46% and 99.18% and 89.16% and 96.01% and 95.94% and 58.25%
  Granzyme B^+ CTL cells (CD45^+ CD8^+GrB+) Cell count (×10^5): 11.76 ×10^5 and 39.25 ×10^5 and 20.44 ×10^5 and 21.59 ×10^5 and 31.75 ×10^5 and 14.00 ×10^5
  Granzyme B^+ CTL cells (CD45^+ CD8^+GrB+) Total %: 40.55% and 31.10% and 28.95% and 21.85% and 17.29%
  IFN-γ^+ CTL cells (CD45^+ CD8^+ IFN-γ^+) CTL Gated %: 0.87% and 0.63% (2×) and 0.85% and 0.20% and 0.61%
  IFN-γ^+ CTL cells (CD45^+ CD8^+ IFN-γ^+) Cell count (×10^5): 0.11 ×10^5 and 0.25 ×10^5 and 0.20 ×10^5 and 0.1 ×10^5 and 0.07 ×10^5 and 0.15 ×10^5
  IFN-γ^+ CTL cells (CD45^+ CD8^+ IFN-γ^+) Total %: 0.39% and 0.20% and 0.28% and 0.14% and 0.09% and 0.18%
  PD-1^+ CTL cells (CD45^+CD8^+ PD-1^+) CTL Gated %: 58.64% and 62.98% and 80.96% and 86.30% and 72.97% and 93.75%
  PD-1^+ CTL cells (CD45^+CD8^+ PD-1^+) Cell count (×10^5): 7.44 ×10^5 and 25.38 ×10^5 and 17.68 ×10^5 and 19.51 ×10^5 and 23.37 ×10^5 and 21.66 ×10^5
  PD-1^+ CTL cells (CD45^+CD8^+ PD-1^+) Total %: 25.64% and 20.11% and 25.04% and 19.75% and 31.41% and 26.74%
